Laboratory results: ChEMBL document CHEMBL1201862, “PubChem BioAssay data set” (2004)
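Growth conditions: 96-well plates. Treatment: test compound, 48 hours, 5 concentrations. Analysis: linear interpolation between bracketing concentrations; unreached endpoints set to highest concentration. GI50 is the concentration that inhibits growth by half.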 Activity calls are given as the source filed them. Rule as the data show it: active = GI50 up to about 1.1 µM and inactive = higher.

Legend:
Assay in all cases: NCI tumour cell line growth inhibition, 48 h
[1] = system: SK-MEL-2
[2] = system: M14
[3] = system: U-251
[4] = system: CCRF-CEM
[5] = system: SK-MEL-5
[6] = system: HOP-62
[7] = system: SF-295
[8] = system: KM12
[9] = system: SNB-19
[10] = system: A549
[11] = system: LOX IMVI
[12] = system: OVCAR-4
[13] = system: HCT-15
[14] = system: HCC 2998
[15] = system: K562
[16] = system: OVCAR-3
[17] = system: UACC-62
[18] = system: OVCAR-5

| Compound | GI50 [1] | GI50 [2] | GI50 [3] | GI50 [4] | GI50 [5] | GI50 [6] | GI50 [7] | GI50 [8] | GI50 [9] | GI50 [10] | GI50 [11] | GI50 [12] | GI50 [13] [µM] | GI50 [14] | GI50 [15] | GI50 [16] | GI50 [17] | GI50 [18] |
| --- | --- | --- | --- | --- | --- | --- | --- | --- | --- | --- | --- | --- | --- | --- | --- | --- | --- | --- |
| OC1CCC[C@@H]1Sc1ccccc1 (some centres undefined) | > 100 µM (inactive) | > 100 µM (inactive) | > 100 µM (inactive) | > 100 µM (inactive) | > 100 µM (inactive) | > 100 µM (inactive) | > 100 µM (inactive) | > 100 µM (inactive) | > 100 µM (inactive) | > 100 µM (inactive) | > 100 µM (inactive) | > 100 µM (inactive) | > 100 | > 100 µM (inactive) | > 100 µM (inactive) | > 100 µM (inactive) | 57.8 µM (inactive) | – |
| Cn1c(=O)n(C2(C)C[Se]C2)c2ccccc21 | > 100 µM (inactive) | > 100 µM (inactive) | > 100 µM (inactive) | > 100 µM (inactive) | > 100 µM (inactive) | > 100 µM (inactive) | > 100 µM (inactive) | > 100 µM (inactive) | > 100 µM (inactive) | > 100 µM (inactive) | > 100 µM (inactive) | > 100 µM (inactive) | > 100 | 65.3 µM (inactive) | > 100 µM (inactive) | – | > 100 µM (inactive) | > 100 µM (inactive) |
| Cc1nc2ccccc2c(=O)n1/N=C(\N=N\c1ccccc1Cl)c1ccccc1Cl | – | > 100 µM (inactive) | 48.5 µM (inactive) | 77.3 µM (inactive) | 63.1 µM (inactive) | 34.8 µM (inactive) | – | – | – | > 100 µM (inactive) | 86.5 µM (inactive) | – | 57.1 | – | 37.3 µM (inactive) | – | 58.9 µM (inactive) | – |
| O=C(O)NC(c1ccccc1)C(NC(=O)c1ccccc1)c1ccccc1 (centres undefined) | > 100 µM (inactive) | – | > 100 µM (inactive) | – | – | > 100 µM (inactive) | > 100 µM (inactive) | > 100 µM (inactive) | > 100 µM (inactive) | > 100 µM (inactive) | 61.8 µM (inactive) | > 100 µM (inactive) | > 100 | – | > 100 µM (inactive) | > 100 µM (inactive) | > 100 µM (inactive) | > 100 µM (inactive) |
| CN(C)CCNC(=O)c1cccc2ccc(-c3ccc(Br)cc3)nc12 | 3.09 µM (inactive) | – | 2.8 µM (inactive) | 1.09 µM (active) | 1.46 µM (inactive) | 0.832 µM (active) | 3.76 µM (inactive) | 3.45 µM (inactive) | 4.14 µM (inactive) | 1.09 µM (active) | 1.64 µM (inactive) | 2.76 µM (inactive) | 2.78 | 1.85 µM (inactive) | 1.7 µM (inactive) | 3.27 µM (inactive) | 1.8 µM (inactive) | 2.96 µM (inactive) |
| COc1cc(/C=C2/C(=O)N(C(=O)c3ccc(Cl)cc3)N=C2C)cc(OC)c1OC | > 100 µM (inactive) | > 100 µM (inactive) | > 100 µM (inactive) | > 100 µM (inactive) | > 100 µM (inactive) | – | > 100 µM (inactive) | > 100 µM (inactive) | > 100 µM (inactive) | > 100 µM (inactive) | > 100 µM (inactive) | > 100 µM (inactive) | > 100 | > 100 µM (inactive) | > 100 µM (inactive) | > 100 µM (inactive) | > 100 µM (inactive) | > 100 µM (inactive) |
| C=C1C(=O)O[C@@H]2OC3(C)CCC4C(C)CCC1C42OO3 (some centres undefined) | 2.18 µM (inactive) | – | 4.85 µM (inactive) | 1.47 µM (inactive) | 4.88 µM (inactive) | 22.1 µM (inactive) | 3.85 µM (inactive) | 3.38 µM (inactive) | 14.7 µM (inactive) | 4.99 µM (inactive) | 2.36 µM (inactive) | 12.6 µM (inactive) | 1.87 | 13.1 µM (inactive) | 2.07 µM (inactive) | 3.41 µM (inactive) | 2.07 µM (inactive) | 15.7 µM (inactive) |
| CCOC(=O)C(C(=O)OCC)P(=S)(S)c1ccccc1 (centres undefined) | > 100 µM (inactive) | – | > 100 µM (inactive) | > 100 µM (inactive) | > 100 µM (inactive) | > 100 µM (inactive) | > 100 µM (inactive) | > 100 µM (inactive) | > 100 µM (inactive) | > 100 µM (inactive) | > 100 µM (inactive) | > 100 µM (inactive) | – | – | > 100 µM (inactive) | – | > 100 µM (inactive) | > 100 µM (inactive) |
| COc1ccc(/C(Cl)=C(\C=O)c2ccccc2)cc1OC | 19.4 µM (inactive) | 36.1 µM (inactive) | 18 µM (inactive) | 15.1 µM (inactive) | 25.4 µM (inactive) | 17.8 µM (inactive) | 17.3 µM (inactive) | – | 27.9 µM (inactive) | 38.7 µM (inactive) | 13.2 µM (inactive) | 25 µM (inactive) | 12.7 | 38.5 µM (inactive) | 19.2 µM (inactive) | 10.3 µM (inactive) | 7.6 µM (inactive) | > 100 µM (inactive) |
| COC1=C(N)C(=O)c2nc(C)ccc2C1=O | 1.74 µM (inactive) | 1.88 µM (inactive) | 2.2 µM (inactive) | 17.2 µM (inactive) | 1.7 µM (inactive) | 1.57 µM (inactive) | 1.79 µM (inactive) | 1.87 µM (inactive) | 1.91 µM (inactive) | 2.18 µM (inactive) | 0.826 µM (active) | 1.89 µM (inactive) | 1.92 | 4.57 µM (inactive) | – | 2.02 µM (inactive) | 1.75 µM (inactive) | 1.98 µM (inactive) |
| CC(C)(O)[C@H](CCO)O[Si](c1ccccc1)(c1ccccc1)C(C)(C)C | 15.1 µM (inactive) | 12.2 µM (inactive) | 12.4 µM (inactive) | 10.6 µM (inactive) | 14.2 µM (inactive) | – | 6.35 µM (inactive) | 11.6 µM (inactive) | 6.01 µM (inactive) | 7.35 µM (inactive) | 11.1 µM (inactive) | – | 8.22 | 6.01 µM (inactive) | 7.74 µM (inactive) | 11.1 µM (inactive) | 11.3 µM (inactive) | 14.9 µM (inactive) |
| CC(=O)OCC1OC(NC(=O)N(CCCl)N=O)C(OC(C)=O)C(OC(C)=O)C1OC(C)=O (centres undefined) | > 100 µM (inactive) | – | 98.4 µM (inactive) | > 100 µM (inactive) | > 31.6 µM (inactive) | > 100 µM (inactive) | 97.1 µM (inactive) | > 100 µM (inactive) | > 65.8 µM (inactive) | > 100 µM (inactive) | 44.8 µM (inactive) | > 100 µM (inactive) | > 100 | > 100 µM (inactive) | > 100 µM (inactive) | > 100 µM (inactive) | 43.9 µM (inactive) | > 100 µM (inactive) |
| O=c1c2ccccc2nc(-c2ccccc2Cl)n1NCC1(O)OCC(O)C(O)C1O (centres undefined) | > 100 µM (inactive) | > 100 µM (inactive) | > 100 µM (inactive) | > 100 µM (inactive) | > 100 µM (inactive) | – | > 100 µM (inactive) | > 100 µM (inactive) | > 100 µM (inactive) | > 100 µM (inactive) | > 100 µM (inactive) | > 100 µM (inactive) | > 100 | – | > 100 µM (inactive) | > 100 µM (inactive) | > 100 µM (inactive) | > 100 µM (inactive) |
| CCCCC(C)/C=C/C(O)=C1\C(=O)O/C(=C\C(=O)O)C1=O (centres undefined) | > 100 µM (inactive) | > 100 µM (inactive) | > 100 µM (inactive) | > 100 µM (inactive) | > 100 µM (inactive) | > 100 µM (inactive) | > 100 µM (inactive) | > 100 µM (inactive) | > 100 µM (inactive) | > 100 µM (inactive) | > 100 µM (inactive) | > 100 µM (inactive) | > 100 | – | > 100 µM (inactive) | > 100 µM (inactive) | > 100 µM (inactive) | > 100 µM (inactive) |
| COc1ccc2[nH]c3c(C)c4cc[n+](COC(=O)c5ccccc5)cc4c(C)c3c2c1 | – | 0.641 µM (active) | 0.392 µM (active) | 0.0698 µM (active) | – | 2.66 µM (inactive) | 0.184 µM (active) | 0.61 µM (active) | 0.713 µM (active) | 0.269 µM (active) | 0.21 µM (active) | 0.168 µM (active) | – | – | 0.221 µM (active) | 1.48 µM (inactive) | 1.09 µM (active) | 0.879 µM (active) |
| CC(C)(C)Sc1nnc(SC(C)(C)C)c2c(SC(C)(C)C)nnc(O)c12 | – | 14.8 µM (inactive) | 5.62 µM (inactive) | 7.5 µM (inactive) | 5.35 µM (inactive) | 13.9 µM (inactive) | 11.4 µM (inactive) | 12.9 µM (inactive) | 11.6 µM (inactive) | 4.59 µM (inactive) | 11.7 µM (inactive) | 2.16 µM (inactive) | 4.31 | 11.5 µM (inactive) | 4.74 µM (inactive) | 10.7 µM (inactive) | 9.91 µM (inactive) | 4.61 µM (inactive) |
| CC1=NNC(=O)C2CCC(=O)N12 (centres undefined) | > 100 µM (inactive) | > 100 µM (inactive) | > 100 µM (inactive) | > 100 µM (inactive) | > 100 µM (inactive) | > 100 µM (inactive) | – | > 100 µM (inactive) | > 100 µM (inactive) | > 100 µM (inactive) | – | > 100 µM (inactive) | > 100 | > 100 µM (inactive) | > 100 µM (inactive) | > 100 µM (inactive) | – | – |
| COc1ccc(Nc2nc(C#N)c(N)s2)cc1 | 33.4 µM (inactive) | 81.5 µM (inactive) | 34.2 µM (inactive) | – | – | 46.8 µM (inactive) | 29.2 µM (inactive) | 29.9 µM (inactive) | 49 µM (inactive) | 27.2 µM (inactive) | 21.4 µM (inactive) | 83.2 µM (inactive) | 15.8 | > 10 µM (inactive) | 24.5 µM (inactive) | > 100 µM (inactive) | 23.1 µM (inactive) | > 100 µM (inactive) |
